We go through 75 molecules from PubChem BioAssay AID179 (DTP/NCI, 2004).

This experiment deals with CEM cells HIV-1 protection, formazan growth assay. Briefly: NCI AIDS Antiviral Assay. The conditions noted are these: for IC50: measured here: growth of uninfected CEM cells. Summed up: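 CEM (human) cells, HIV-1 infected vs uninfected, 5-point dosing, formazan growth read-out. Retest threshold 50% protection.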

The structures appear in SMILES notation. Active and inactive are the calls of the source.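 The calls were made as follows: active = compounds giving half or more protection of infected cells from virus-caused growth loss, again on retest; inactive = the rest.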 Bounds are passed on as bounds.

`S=c1nc2[nH]c3ccc(Br)cc3c2n[nH]1`: the EC50 is above 200 µM and the IC50 stood at 27.5 µM.
As to `Cc1cn(C2C/C(=N\O)C(CO)O2)c(=O)[nH]c1=O` (configuration not stated), the EC50 is 12.6 µM and the concentration for half-maximal inhibition (IC50) came to 174 µM.
Turning to `CC(C)(C)C1(C#N)C(=O)N(c2ccc(N3C(=O)C(C#N)(C(C)(C)C)C34c3ccccc3-c3ccccc34)cc2)C12c1ccccc1-c1ccccc12` (configuration not stated), the EC50 is above 372 µM and the concentration for half-maximal inhibition (IC50) was determined as 107 µM.
As to `Cc1cc(NS(=O)(=O)c2ccc(N=c3c4ccccc4n(Cc4ccccc4)c4ccccc34)cc2)no1`, the outcome was inactive.
As for `CCC(C)[C@H]1C(=O)N=C(N)N1C(=O)OCc1ccccc1` (some centres not stated), the EC50 is 195 µM and the IC50 was above 200 µM.
On to `CC/C(=C(\c1ccccc1)c1ccc(OCCN(C)C)cc1)c1ccccc1`, for which the EC50 is above 83.2 µM and the IC50 stood at 14.8 µM.
Regarding `O=C(O)CP(=S)(S)c1ccccc1` (configuration not stated), the EC50 is above 5620 µM and the IC50 is above 5620 µM.
For `c1ccc2nc3c(nc2c1)[nH]c1ccccc13`, the EC50 is above 12.3 µM and the IC50 was above 12.3 µM.
In the case of `Clc1cc2c(c(CSc3nc4ccccc4n4cccc34)c1)OCOC2`, the EC50 is above 13.5 µM and the IC50 was above 13.5 µM.
For the molecule `CCCN(CCCC(NC(C)=O)C(=O)NCc1ccccc1)C(=O)N(C)N=O` (configuration not stated), the EC50 was above 174 µM and the IC50 was above 174 µM.
Regarding `CC1CCC2(C(=O)O)CCC3(C)C(=CCC4C5(C)CCC(O)C(C)(C)C5CCC43C)C2C1C` (configuration not stated), the EC50 was above 200 µM and the IC50 stood at 14.8 µM.
On the same counts, the results for `O=c1oc2c3ccccc3c3ccccc3c2c2oc3c4ccccc4c4ccccc4c3c12` are 0.0209 µM and 0.955 µM.
As to `O=C(N/C(=C\c1c(O)ccc2ccccc12)c1nc2ccccc2[nH]1)c1ccccc1`, the EC50 is above 22.4 µM and the IC50 is above 22.4 µM.
With `CC/C(SC)=[N+](\C)[O-]`, the EC50 is above 955 µM and the IC50 was 174 µM.
Turning to `O=C1NC(N2CCCC(CO)C2)=N/C1=C\c1ccc(O)cc1` (configuration not stated), the EC50 is above 200 µM and the IC50 was 115 µM.
As to `O=C1NN2CCN=C2c2cccnc21`, the EC50 is above 1320 µM and the IC50 is above 1320 µM.
In the case of `O=C1c2ccccc2C(=O)N1/N=C1/SC(=Nc2ccccc2)C(=Nc2ccccc2)N1c1ccccc1`, the result was inactive.
`CC1(C)OP(=O)(O)C=C1[Se]c1ccccc1`: the EC50 is above 324 µM and the IC50 was above 324 µM.
As to `O=C1C=C2C[C@H]3C(O)C[C@]2(O1)[C@H]1CCCN31` (some centres not stated), the EC50 is above 112 µM and the concentration for half-maximal inhibition (IC50) is above 112 µM.
On to `Cc1cn(C2CC(F)C(COC(=O)CCCCCCCCCCCN=[N+]=[N-])O2)c(=O)[nH]c1=O` (configuration not stated), for which the EC50 was 0.000631 µM and the IC50 is 2 µM.
Consider `CCCc1cc(=O)oc2c3c(c4c(c12)OC(C)(C)C=C4)O[C@@H](C)[C@H](C)[C@@H]3O[Si](C)(C)C(C)(C)C`, for which the EC50 is above 200 µM and the IC50 is above 200 µM.
As for `Cc1ccc(S(=O)(=O)N2CC2CCCCC=O)cc1` (configuration not stated), the EC50 is above 200 µM and the IC50 was determined as 31.6 µM.
Regarding `O=C1C=CC2=C3c4cc(O)c(O)cc4CC3(O)COC2=C1O` (configuration not stated), the EC50 is above 45.7 µM and the IC50 was found to be 40.7 µM.
Turning to `C=C1C(=O)O[C@@H]2[C@H]1CCC(C)=C1C=CC(=O)[C@]12C`, the result was inactive.
Consider `O=C(Cc1ccccc1)NNc1nc(NNC(=O)c2ccncc2)nc(Nc2cccc(Cl)c2)n1`, for which the EC50 is above 200 µM and the IC50 is above 200 µM.
Take `CC1(C)NC(=O)C2(CC(O)C(O)C(OC(=O)c3ccccc3)C2)O1` (configuration not stated): the EC50 is above 263 µM and the IC50 was above 263 µM.
For `O=C1C(c2ccccc2Cl)[C@H]2CC=C[C@H]2N1O` (some centres not stated), the result was inactive.
As to `CCc1nc2ccccn2n1`, the EC50 is above 200 µM and the 50% inhibitory concentration (IC50) is above 200 µM.
Consider `O/N=C(\c1ccccc1)N1CCCCC1`, for which the result was inactive.
In the case of `O=c1[nH]c(-c2nc3ccccc3c(=O)[nH]2)nc2ccccc12`, the EC50 is above 32.4 µM and the IC50 was above 32.4 µM.
Take `Cc1nc2ccccc2c(=O)n1NC(=O)c1ccc([N+](=O)[O-])cc1`: the EC50 was above 200 µM and the IC50 was above 200 µM.
Consider `COc1ccc(-c2cn3c([nH]c(=O)c4cc(Br)ccc43)c2C#N)cc1`, for which the EC50 is above 200 µM and the half-inhibitory concentration (IC50) was found to be 182 µM.
In the case of `C=CC[C@@]12CC(C=CC13OCCO3)OC(O)[C@@H]2C` (some centres not stated), the EC50 is above 200 µM and the IC50 was 145 µM.
With `CCCC/C=C(/CCCNC=O)[Si](C)(C)C`, the EC50 is above 537 µM and the half-maximal inhibitory concentration (IC50) is above 537 µM.
`CC(C)NC(=O)OCc1c(COC(=O)NC(C)C)n(C)c2c1ccc1sccc12`: the EC50 was above 200 µM and the concentration for half-maximal inhibition (IC50) was determined as 2.14 µM.
For `O=[N+]([O-])c1cc([As](=O)(O)O)ccc1F` the same measures were above 200 µM and above 200 µM.
For `CCOC(=O)c1nc2ccccc2nc1Oc1ccc(OC)cc1`, the EC50 was above 200 µM and the 50% inhibitory concentration (IC50) is above 200 µM.
Regarding `CC(C)(C)c1ccc(-n2c3nc(=O)n(-c4ccccc4C(F)(F)F)c(=O)c-3cc3ccccc32)cc1`, the EC50 was above 200 µM and the IC50 was 15.8 µM.
On to `O=c1[nH]c2ccccc2c(O)c1Cc1c(O)c2ccccc2[nH]c1=O`, for which the EC50 was above 25.1 µM and the IC50 is above 25.1 µM.
In the case of `Cc1ccc(C2(c3ccc(F)cc3)OC(=O)c3ccccc32)c(O)c1` (configuration not stated), the outcome was inactive.
As for `CC(=O)CCn1c(=S)sc2ccccc21`, the EC50 was above 200 µM and the IC50 was 93.3 µM.
On the same counts, the results for `Nc1c(Cl)ncnc1Nc1ccc(Cc2ccc(Nc3ncnc(Cl)c3N)cc2)cc1` are above 79.4 µM and above 79.4 µM.
On the same counts, the results for `O=C1Cc2ccccc2CCc2ccsc21` are 64.6 µM and 83.2 µM.
For `O=C(NC1C=Nc2ccccc2NC1=O)c1ccccc1Cl` (configuration not stated) the same measures were above 115 µM and 97.7 µM.
Take `CCCCC(=O)NS(=NC(=O)c1ccccc1)C(Cl)(Cl)Cl` (configuration not stated): the EC50 was above 200 µM and the IC50 was above 200 µM.
Consider `CC(C)CCCC(C)[C@H]1CCC2[C@@H]3CCC4Nc5[nH]ncc5C[C@]4(C)C3CC[C@@]21C` (some centres not stated), for which the outcome was inactive.
In the case of `N=c1oc2ccc(Cl)cc2cc1C(=O)Nc1ccccc1`, the EC50 is above 151 µM and the IC50 worked out at 21.9 µM.
For `Clc1ccc(CSc2cnnc3c(Br)cccc23)c(Cl)c1` the same measures were above 24.5 µM and above 24.5 µM.
On the same counts, the results for `O=c1c2c([nH]c3nccn13)CCCC2` are above 200 µM and above 200 µM.
`Nc1nc2c(ncn2C(CCO)SCCO)c(=O)[nH]1` (configuration not stated): the EC50 was above 871 µM and the IC50 is above 871 µM.
As to `O=C1CCCCC(=O)OC2(CCCCC2=O)CC1` (configuration not stated), the EC50 is above 200 µM and the IC50 was above 200 µM.
On to `CCOC(=O)c1ccc(Nc2nc3cc(C(F)(F)F)ccc3nc2C(=O)OCC)cc1`, for which the EC50 is above 200 µM and the IC50 came to 83.2 µM.
On to `COc1ccc(S(=O)(=O)NCCSSCCNS(=O)(=O)c2ccc(OC)cc2)cc1`, for which the EC50 is above 200 µM and the IC50 came out at 26.9 µM.
Regarding `CC(=O)Oc1c(C)c(-c2ccccc2)c(C)c(-c2ccccc2)c1C(=S)c1ccccc1`, the result was inactive.
Consider `O=C(O)c1ccccc1CC1Cc2ccccc2C1=O` (configuration not stated), for which the EC50 was above 200 µM and the IC50 is above 200 µM.
As to `O=P1(c2ccccc2)C(c2ccccc2)=CC=C1c1ccccc1`, the EC50 was above 200 µM and the IC50 was 7.41 µM.
`Cn1c(=O)nc2n(-c3ccc(F)cc3)c3ccccc3nc-2c1=O`: the outcome was inactive.
With `CC(=O)NC(CCCCNC(=O)NCCCl)C(=O)NCc1ccccc1` (configuration not stated), the EC50 is above 646 µM and the IC50 was above 646 µM.
With `COc1ccc2ccccc2c1C1=NC(C)(C)CO1`, the EC50 is above 977 µM and the 50% inhibitory concentration (IC50) turned out to be 479 µM.
On the same counts, the results for `NC(=O)n1cnc(N)n1` are above 200 µM and above 200 µM.
For `COc1cc2cnc3c4cc(OC)c(OC(C)C)cc4ccc3c2cc1OC`, the EC50 is above 5.37 µM and the IC50 is above 5.37 µM.
In the case of `S=C1NC(c2ccccc2)=NC(Cc2ccccc2)(c2ccccc2)N1c1ccccc1` (configuration not stated), the result was inactive.
Turning to `COC(=O)[C@@H]1COC(=O)N1`, the EC50 is above 200 µM and the IC50 is above 200 µM.
In the case of `O=P1(Nc2ccccc2)OCCCN1Cc1ccc(Cl)c(Cl)c1` (configuration not stated), the EC50 was above 200 µM and the IC50 was 53.7 µM.
On the same counts, the results for `CC(C)CCCC(C)C1CCC2[C@@H]3CCC4C[C@@H](CCCC(c5cc(Cl)c(O)c(C(=O)O)c5)c5cc(Cl)c(O)c(C(=O)O)c5)CC[C@]4(C)C3CC[C@]12C` (some centres not stated) are 18.2 µM and 309 µM.
On to `Cc1cc(C(=O)CCCCOc2ccc(C3=NCCO3)cc2)c(C)n1C`, for which the result was inactive.
In the case of `Cc1ccc(SCC(CF)OCn2cnc3c(N)ncnc32)cc1` (configuration not stated), the EC50 was above 200 µM and the IC50 is above 200 µM.
As to `CCCCCCCCCCCCCCCCOC(=O)C(C(=O)OCCCCCCCCCCCCCCCC)[N+](C)(C)CCOC(C)=O`, the outcome was inactive.
Consider `C=C(CN(C)C)c1ccccn1`, for which the EC50 was above 200 µM and the IC50 is above 200 µM.
Turning to `CC(C)CC(N)CO` (configuration not stated), the EC50 was above 200 µM and the half-maximal inhibitory concentration (IC50) is above 200 µM.
As for `CCc1nc2ccc(C(F)(F)F)cc2[nH]c1=O`, the EC50 is above 200 µM and the concentration for half-maximal inhibition (IC50) was 105 µM.
For `Cc1cn(C(Cc2ccccc2)OCC[Se]c2ccccc2)c(=O)[nH]c1=O` (configuration not stated), the EC50 is 100 µM and the half-inhibitory concentration (IC50) is above 200 µM.
For `CC(=O)c1sc2c(c1OC(=O)c1cccs1)c(=O)n(-c1ccccc1)c(=S)n2-c1ccccc1` the same measures were above 200 µM and 3.8 µM.
As to `O=C1C2C(C(=O)N1c1ccccc1)C1([N+](=O)[O-])C=C3c4ccccc4N(C(=O)c4ccccc4)C32C2C(=O)N(c3ccccc3)C(=O)C21` (configuration not stated), the result was inactive.
As for `CC(C)(CNC(=O)/C(Cl)=C(/Cl)C(=O)O)CNC(=O)/C(Cl)=C(/Cl)C(=O)O`, the EC50 is above 200 µM and the IC50 was found to be 17 µM.
